Assay results published in publication PMC4184702 (Pharmacology Research & Perspectives, 2014).
“Also recorded” adds a separate entry of the source.

Assays:
[1] = Bacterial cytotoxicity, strain TA98; type: cell-based; settings: Salmonella typhimurium, bacterial tester strain TA98 without S9, read-out: Cytotoxicity (% of Control Values)
Excerpt: Supplement prp20002-e00026-sd1.doc, table 4: Table 4.

[2] = Metabolic stability, cryopreserved hepatocytes, mouse; type: in vitro ADME; settings: CD-1, 1.0E-06 M, 2 h
Oxytocin = target: T1, Oxytocin (Homo sapiens, UniProt P30559); assay: PDSP primary binding, Oxytocin; settings: n = 4, read-out: Inhibition (primary binding competition efficacy), Oxytocin
T1 construct: purchased NIMH Psychoactive Drug Screening Program (PDSP)
Description: (§1) For experimental details, please refer to the Psychoactive Drug Screening Program (PDSP) web site http://pdsp.med.unc.edu/.
(§2) ^a The default concentration for primary binding experiments is 10 µM (n = 4). ^b Negative inhibition represents a stimulation of binding. ^c BZPR: Benzodiazepine Receptors (rat brain site). ^d DOR: Delta Opioid Receptor; KOR: Kappa Opioid Receptor; MOR: Mu Opioid Receptor. ^e DAT: Dopamine Transporter; NET: Norepinephrine Transporter; SERT: Serotonin Transporter. ^f NMDA: N-methyl-D-aspartate receptor.

σ 1 sigma receptor = assay: PDSP primary binding, σ 1; settings: 10 µM, n = 4
Description: as §1, §2

Male C57 BL6 mice = assay: SmartCube test; type: in vivo, mouse
Description: Male C57 BL6 mice (Taconic Farms) were used in the SmartCube® assay (PsychoGenics Inc., Tarrytown, NY). Mice were received at 7 weeks old and group-housed in OptiMICE ventilated cages with four mice/cage. Mice were acclimated to the colony room for at least 1 week prior to the first injections. All animals were tested in SmartCube® at 8 10 weeks old.
To acquire initial in vivo evaluation of our nicotinic ligands for behavioral effects relevant to psychiatric diseases, we used SmartCube®, an automated system in which mouse behavior is captured by digital video using novel, proprietary hardware that presents multiple challenges in a single test session and is analyzed with computer algorithms. Digital videos of the subjects are processed with computer vision algorithms to extract more than 1400 dependent measures including frequency and duration of behavioral states such as grooming, rearing, etc., and many other features obtained during the test session. Using machine learning techniques chosen to best separate pharmacological effects of reference compounds, the behavioral signatures of the mutant mice are then assessed quantitatively.
The most dominant of the features collected that define the drug class signature are identified and ranked using complex proprietary bioinformatics algorithms. The outcome of a SmartCube® run is a set of more than 1400 features (behavioral parameters) that can be used for various analyses. Many of these features are correlated (e.g., rearing counts and supported rearing counts). Therefore, we form statistically independent combinations of the original features (further referred to as decorrelated features) that discriminate between the groups more effectively. Next, we apply a proprietary feature ranking algorithm to score each feature discrimination power to weight each feature change by its relevance. The data obtained in this way are used to define drug signatures for known reference compounds and to establish therapeutic class signatures against which a test sample can be compared. The neuropharmacological effects of a test compound can be predicted by similarity to major classes of compounds, such as antipsychotics, anxiolytics, and antidepressants (Roberds et al. [2011]).
Mice are taken in their home cage to the SmartCube® suite of experimental rooms where they remain until they are placed in the apparatus for a single testing session. A standard SmartCube® protocol runs for a single session (∼45 min). After the session mice are group-housed again and brought back to the colony room. Any abnormal behavior is noted. […] At least 12 mice were used in each treatment group.

β3 adrenergic receptor = target: T2, β3 adrenergic receptor (Homo sapiens, UniProt P13945); assay: PDSP primary binding, β3; settings: n = 4, read-out: Inhibition (primary binding competition efficacy), β3
T2 construct: purchased NIMH Psychoactive Drug Screening Program (PDSP)
Description: as §1, §2

[3] = Plasma and brain levels after NSF (UHPLC-MS-MS); type: in vivo, mouse
Description: The chamber floor is covered with bedding (∼0.5″). […] Samples are stored at −80°C until analysis.
Compound LF-3-99 (10 ng/mL, See Fig. S1 for structure) was used as an internal standard.

D2 dopamine receptor = target: T3, D2 dopamine receptor (Homo sapiens, UniProt P14416); assay: PDSP primary binding, D2; settings: n = 4, read-out: Inhibition (primary binding competition efficacy), D2
T3 construct: purchased NIMH Psychoactive Drug Screening Program (PDSP)
Description: as §1, §2

[4] = target: T4, DAT: Dopamine Transporter (Homo sapiens, UniProt Q01959); assay: PDSP primary binding, DAT; settings: n = 4, read-out: Inhibition (primary binding competition efficacy), DAT
T4 construct: purchased NIMH Psychoactive Drug Screening Program (PDSP)
Description: as §1, §2

β1 adrenergic receptor = target: T5, β1 adrenergic receptor (Homo sapiens, UniProt P08588); assay: PDSP primary binding, β1; settings: n = 4, read-out: Inhibition (primary binding competition efficacy), β1
T5 construct: purchased NIMH Psychoactive Drug Screening Program (PDSP)
Description: as §1, §2

M1 muscarinic receptor = target: T6, M1 muscarinic receptor (Homo sapiens, UniProt P11229); assay: PDSP primary binding, M1; settings: n = 4, read-out: Inhibition (primary binding competition efficacy), M1
T6 construct: purchased NIMH Psychoactive Drug Screening Program (PDSP)
Description: as §1, §2

D3 dopamine receptor = target: T7, D3 dopamine receptor (Homo sapiens, UniProt P35462); assay: PDSP primary binding, D3; settings: n = 4, read-out: Inhibition (primary binding competition efficacy), D3
T7 construct: purchased NIMH Psychoactive Drug Screening Program (PDSP)
Description: as §1, §2

[5] = tested on: 51 other CNS neurotransmitter receptors and transporters; assay: Broad-range screening (PDSP), summary; type: binding; settings: 10 μmol/L
Description: as §1, §2

[6] = target: hERG (human ether-a-go-go-related gene) (Homo sapiens, UniProt Q12809); assay: hERG inhibition assay; settings: in words
α1B adrenergic receptor = target: T8, α1B adrenergic receptor (Homo sapiens, UniProt P35368); assay: PDSP primary binding, α1B; settings: n = 4, read-out: Inhibition (primary binding competition efficacy), α1B
T8 construct: purchased NIMH Psychoactive Drug Screening Program (PDSP)
Description: as §1, §2

5-HT1B = target: T9, 5-HT1B (Homo sapiens, UniProt P28222); assay: PDSP primary binding, 5-HT1B; settings: n = 4, negative inhibition = stimulation of binding, read-out: Inhibition (primary binding competition efficacy), 5-HT1B
T9 construct: purchased NIMH Psychoactive Drug Screening Program (PDSP)
Description: as §1, §2

[7] = 5 mg/kg p.o., day 29, about 50-60 min after pretreatment

T2 sequence (P13945 whole entry): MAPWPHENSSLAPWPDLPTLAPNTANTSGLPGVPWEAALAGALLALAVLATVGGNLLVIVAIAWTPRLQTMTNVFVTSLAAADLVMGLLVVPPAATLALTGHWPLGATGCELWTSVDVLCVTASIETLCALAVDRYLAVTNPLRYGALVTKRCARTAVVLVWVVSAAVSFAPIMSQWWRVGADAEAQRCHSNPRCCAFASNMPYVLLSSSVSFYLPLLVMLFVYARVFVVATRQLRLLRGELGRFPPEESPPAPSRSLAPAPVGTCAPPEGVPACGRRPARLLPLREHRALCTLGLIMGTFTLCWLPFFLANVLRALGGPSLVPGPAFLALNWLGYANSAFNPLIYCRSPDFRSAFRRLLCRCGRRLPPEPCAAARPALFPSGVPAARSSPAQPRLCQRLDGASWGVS
T5 sequence (P08588 whole entry): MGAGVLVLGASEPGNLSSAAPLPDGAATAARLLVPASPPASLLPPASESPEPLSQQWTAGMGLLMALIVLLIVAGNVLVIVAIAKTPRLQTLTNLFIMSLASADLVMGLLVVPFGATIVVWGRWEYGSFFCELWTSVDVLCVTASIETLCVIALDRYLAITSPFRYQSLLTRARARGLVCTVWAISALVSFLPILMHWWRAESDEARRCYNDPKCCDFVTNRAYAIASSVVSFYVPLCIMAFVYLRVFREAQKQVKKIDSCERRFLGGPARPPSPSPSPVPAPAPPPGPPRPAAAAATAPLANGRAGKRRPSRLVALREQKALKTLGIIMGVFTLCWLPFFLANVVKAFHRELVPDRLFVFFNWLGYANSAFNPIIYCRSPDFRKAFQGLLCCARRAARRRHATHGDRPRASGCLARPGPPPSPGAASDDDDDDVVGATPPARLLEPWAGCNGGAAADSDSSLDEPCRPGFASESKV
T4 sequence (Q01959 whole entry): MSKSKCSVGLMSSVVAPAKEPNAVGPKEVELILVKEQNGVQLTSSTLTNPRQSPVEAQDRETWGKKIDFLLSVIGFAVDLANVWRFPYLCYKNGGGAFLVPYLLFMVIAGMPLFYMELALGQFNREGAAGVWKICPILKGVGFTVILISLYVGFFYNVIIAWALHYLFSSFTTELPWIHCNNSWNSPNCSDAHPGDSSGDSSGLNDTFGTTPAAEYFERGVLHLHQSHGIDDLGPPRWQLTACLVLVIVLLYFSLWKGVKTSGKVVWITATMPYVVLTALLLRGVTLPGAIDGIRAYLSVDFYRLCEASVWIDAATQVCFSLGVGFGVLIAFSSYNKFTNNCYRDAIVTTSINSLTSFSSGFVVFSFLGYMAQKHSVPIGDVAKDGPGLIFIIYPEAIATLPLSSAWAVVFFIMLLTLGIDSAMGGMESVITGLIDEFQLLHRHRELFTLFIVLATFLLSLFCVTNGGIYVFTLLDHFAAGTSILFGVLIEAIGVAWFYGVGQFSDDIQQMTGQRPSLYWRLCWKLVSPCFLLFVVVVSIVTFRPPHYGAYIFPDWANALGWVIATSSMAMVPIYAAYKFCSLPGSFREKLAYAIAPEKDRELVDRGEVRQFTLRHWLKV
T1 sequence (P30559 whole entry): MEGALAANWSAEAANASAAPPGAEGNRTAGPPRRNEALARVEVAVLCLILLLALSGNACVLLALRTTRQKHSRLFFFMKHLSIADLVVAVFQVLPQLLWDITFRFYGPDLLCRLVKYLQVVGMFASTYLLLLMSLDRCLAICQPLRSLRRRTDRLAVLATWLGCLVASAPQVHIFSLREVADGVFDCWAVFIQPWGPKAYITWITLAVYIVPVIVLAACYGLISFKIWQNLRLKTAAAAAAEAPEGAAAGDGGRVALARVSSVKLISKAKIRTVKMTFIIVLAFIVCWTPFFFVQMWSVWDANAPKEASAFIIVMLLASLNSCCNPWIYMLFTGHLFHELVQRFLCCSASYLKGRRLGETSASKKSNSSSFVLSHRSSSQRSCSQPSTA
T3 sequence (P14416 whole entry): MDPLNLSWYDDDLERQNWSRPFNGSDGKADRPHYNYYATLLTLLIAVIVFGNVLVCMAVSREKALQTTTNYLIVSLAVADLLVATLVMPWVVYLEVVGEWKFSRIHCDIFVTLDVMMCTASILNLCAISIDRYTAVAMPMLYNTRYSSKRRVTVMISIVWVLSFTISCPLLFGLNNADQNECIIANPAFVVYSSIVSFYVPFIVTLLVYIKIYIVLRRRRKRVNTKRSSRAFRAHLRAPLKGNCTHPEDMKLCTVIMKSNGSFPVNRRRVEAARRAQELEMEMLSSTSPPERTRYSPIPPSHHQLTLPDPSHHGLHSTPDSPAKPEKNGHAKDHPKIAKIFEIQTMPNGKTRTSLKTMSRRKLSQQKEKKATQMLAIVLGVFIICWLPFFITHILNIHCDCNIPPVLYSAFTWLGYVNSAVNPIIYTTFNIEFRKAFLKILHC
Chain of hERG (human ether-a-go-go-related gene) (Q12809 whole entry): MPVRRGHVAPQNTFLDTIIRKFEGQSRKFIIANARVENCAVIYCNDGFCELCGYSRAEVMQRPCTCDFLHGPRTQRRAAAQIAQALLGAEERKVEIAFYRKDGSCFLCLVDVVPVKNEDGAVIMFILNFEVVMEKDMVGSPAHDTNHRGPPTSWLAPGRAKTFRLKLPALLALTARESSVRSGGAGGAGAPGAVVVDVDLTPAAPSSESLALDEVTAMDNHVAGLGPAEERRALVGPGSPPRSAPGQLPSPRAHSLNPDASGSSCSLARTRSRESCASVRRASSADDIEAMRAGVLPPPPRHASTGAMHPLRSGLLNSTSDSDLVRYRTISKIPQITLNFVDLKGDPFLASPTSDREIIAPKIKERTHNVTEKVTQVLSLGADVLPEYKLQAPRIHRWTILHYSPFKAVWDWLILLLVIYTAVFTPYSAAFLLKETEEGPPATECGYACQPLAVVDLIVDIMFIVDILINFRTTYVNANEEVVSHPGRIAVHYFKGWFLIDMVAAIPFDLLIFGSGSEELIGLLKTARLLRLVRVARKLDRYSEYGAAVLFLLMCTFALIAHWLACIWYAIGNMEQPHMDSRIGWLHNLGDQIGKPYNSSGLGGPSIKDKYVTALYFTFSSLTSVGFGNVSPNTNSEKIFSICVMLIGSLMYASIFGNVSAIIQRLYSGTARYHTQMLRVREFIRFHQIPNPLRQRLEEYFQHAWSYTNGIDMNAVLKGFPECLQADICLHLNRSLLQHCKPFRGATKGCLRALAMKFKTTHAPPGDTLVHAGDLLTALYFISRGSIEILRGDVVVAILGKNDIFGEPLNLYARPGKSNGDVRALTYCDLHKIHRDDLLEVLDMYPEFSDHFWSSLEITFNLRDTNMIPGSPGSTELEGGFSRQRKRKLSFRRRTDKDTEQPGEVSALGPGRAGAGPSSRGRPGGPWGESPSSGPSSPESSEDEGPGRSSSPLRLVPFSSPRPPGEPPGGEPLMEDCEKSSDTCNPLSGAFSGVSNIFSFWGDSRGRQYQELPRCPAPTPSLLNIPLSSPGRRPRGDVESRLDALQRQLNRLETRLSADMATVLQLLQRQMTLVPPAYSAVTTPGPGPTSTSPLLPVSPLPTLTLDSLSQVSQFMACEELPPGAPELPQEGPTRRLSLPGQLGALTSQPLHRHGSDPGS
T6 sequence (P11229 whole entry): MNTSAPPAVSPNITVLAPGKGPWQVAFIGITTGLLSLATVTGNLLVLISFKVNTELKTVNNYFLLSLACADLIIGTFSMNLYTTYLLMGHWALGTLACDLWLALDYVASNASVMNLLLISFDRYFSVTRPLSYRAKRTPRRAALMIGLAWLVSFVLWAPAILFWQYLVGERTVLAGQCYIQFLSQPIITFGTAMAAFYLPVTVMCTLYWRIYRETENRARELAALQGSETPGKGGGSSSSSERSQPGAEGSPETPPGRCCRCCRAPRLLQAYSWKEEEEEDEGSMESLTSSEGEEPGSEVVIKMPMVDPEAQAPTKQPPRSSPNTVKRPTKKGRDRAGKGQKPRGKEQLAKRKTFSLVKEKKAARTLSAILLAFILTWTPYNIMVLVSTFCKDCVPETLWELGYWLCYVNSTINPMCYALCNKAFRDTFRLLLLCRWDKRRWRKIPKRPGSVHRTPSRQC
T8 sequence (P35368 whole entry): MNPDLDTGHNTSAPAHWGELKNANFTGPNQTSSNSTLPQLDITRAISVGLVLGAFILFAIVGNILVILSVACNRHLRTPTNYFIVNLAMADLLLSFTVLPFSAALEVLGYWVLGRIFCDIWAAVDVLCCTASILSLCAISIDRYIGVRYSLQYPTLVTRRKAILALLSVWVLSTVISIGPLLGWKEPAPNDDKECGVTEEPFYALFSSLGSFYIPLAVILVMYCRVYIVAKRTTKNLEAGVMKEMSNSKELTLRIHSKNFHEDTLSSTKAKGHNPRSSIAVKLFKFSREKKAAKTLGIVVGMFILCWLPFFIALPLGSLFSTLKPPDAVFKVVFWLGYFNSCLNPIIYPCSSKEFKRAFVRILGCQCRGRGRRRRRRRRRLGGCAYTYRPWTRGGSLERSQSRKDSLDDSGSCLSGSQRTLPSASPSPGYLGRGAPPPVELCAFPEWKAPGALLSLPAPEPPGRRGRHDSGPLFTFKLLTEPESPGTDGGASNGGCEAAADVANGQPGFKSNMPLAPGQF
T9 sequence (P28222 whole entry): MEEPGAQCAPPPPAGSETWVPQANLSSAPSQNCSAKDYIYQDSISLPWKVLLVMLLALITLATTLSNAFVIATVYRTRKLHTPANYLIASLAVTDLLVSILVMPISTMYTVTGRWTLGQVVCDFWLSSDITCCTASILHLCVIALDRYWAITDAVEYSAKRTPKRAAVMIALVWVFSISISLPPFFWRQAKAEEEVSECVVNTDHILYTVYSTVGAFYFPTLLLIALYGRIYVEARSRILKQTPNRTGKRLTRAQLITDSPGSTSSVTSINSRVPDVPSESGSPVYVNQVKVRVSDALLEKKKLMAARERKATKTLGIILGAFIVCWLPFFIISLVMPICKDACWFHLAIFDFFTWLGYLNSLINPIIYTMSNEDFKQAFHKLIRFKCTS

With `OCCc1cc(-c2cncc(OC[C@@H]3CCN3)c2)on1` [LF-3-88, 2-[5-[5-(2(S)-azetidinylmethoxyl)-3-pyridyl]-3-isoxazolyl]ethanol] as the compound, how does the viability at 0.0001 M ([1]; strain TA98 – S9, 1.0E-04 M) read?
The viability at 0.0001 M was 108%.

What about the viability at 10 µM ([1]; strain TA98 – S9, 1.0E-05 M) of the same compound?
The viability at 10 µM was 92%.

And the viability at 1.25 µM ([1]; strain TA98 – S9, 1.25E-06 M)?
The viability at 1.25 µM was 95%.

And the viability at 25 µM ([1]; strain TA98 – S9, 2.5E-05 M)?
The viability at 25 µM was 94%.

And the viability at 2.5 µM ([1]; strain TA98 – S9, 2.5E-06 M)?
Its viability at 2.5 µM is 98%.

And the viability at 50 µM ([1]; strain TA98 – S9, 5.0E-05 M)?
Its viability at 50 µM is 102%.

What about the viability at 5 µM ([1]; strain TA98 – S9, 5.0E-06 M) of the same compound?
Its viability at 5 µM is 96%.

What about the viability at 625 nM ([1]; strain TA98 – S9, 6.25E-07 M) of the same compound?
The viability at 625 nM was 97%.

And the “Remaining (metabolic stability)” value [2]?
Its value is 91%.

What about the inhibition at 10 µM (Oxytocin) of the same compound?
The inhibition at 10 µM was 6.4%.

And the “Inhibition (primary binding competition efficacy), σ 1” value (σ 1 sigma receptor)?
Its value is 15.8%.

What about the “SmartCube antidepressant (green) component” value (Male C57 BL6 mice; 5 and 10 mg/kg, i.p.) of the same compound?
Its value is “antidepressive-like behavioral signatures; also recorded: potential antidepressive-like behavior; also recorded: most pronounced”.

And the SmartCube side effects (Male C57 BL6 mice; 5 and 10 mg/kg, i.p.)?
Its SmartCube side effects is “Minimal side effects”.

What about the “SmartCube side effect signature” value (Male C57 BL6 mice; both tested doses (5 and 10 mg/kg)) of the same compound?
Its value is “less than 10%”.

What about the SmartCube behavioral signature (Male C57 BL6 mice; both tested doses, i.p., 15 min preinjection) of the same compound?
Its SmartCube behavioral signature is “robust CNS drug-like signatures”.

And the inhibition at 10 µM (β3 adrenergic receptor)?
The inhibition at 10 µM was 28.3%.

And the Plasma level [3, 7]?
The Plasma level was 430 ± 172 ng/mL.

What about the brain level [3, 7] of the same compound?
The brain level was 14 ± 4 ng/g.

What about the Plasma level ([3]; 10 mg/kg p.o., day 29) of the same compound?
Its Plasma level is 942 ± 400 ng/mL.

And the brain level ([3]; 10 mg/kg p.o., day 29)?
The brain level was 31 ± 11 ng/g.

And the inhibition at 10 µM (D2 dopamine receptor)?
The inhibition at 10 µM was 17.2%.

What about the inhibition at 10 µM [4] of the same compound?
Its inhibition at 10 µM is 18.6%.

What about the inhibition at 10 µM (β1 adrenergic receptor) of the same compound?
Its inhibition at 10 µM is 1.7%.

What about the inhibition at 10 µM (M1 muscarinic receptor) of the same compound?
The inhibition at 10 µM was 8.8%.

And the inhibition at 10 µM (D3 dopamine receptor)?
Its inhibition at 10 µM is 3%.

What about the “inhibition across 51 other CNS neurotransmitter receptors and transporters” value [5] of the same compound?
The value was at most 50%.

What about the “profile in hERG inhibition assay” value [6] of the same compound?
Its value is “favorable profile”.

And the inhibition at 10 µM (α1B adrenergic receptor)?
Its inhibition at 10 µM is -1.8%.

What about the inhibition at 10 µM (5-HT1B) of the same compound?
Its inhibition at 10 µM is -7.9%.
